Tests used:
Type in all cases: cell-based
human platelets [1] = test: Thrombin-induced platelet activation, surface CD62P by flow cytometry; conditions: 0.1 U/ml thrombin; for maximal inhibitory concentration (MIC) for thrombin: AHL pre-incubation 15 minutes at 37° C., CD62P; for inhibition of platelet activation by thrombin: several concentrations of AHL
human platelets [2] = test: aggIgG-induced platelet activation, surface CD62P by flow cytometry; conditions: aggIgG 50 or 500 μg/ml; several concentrations of AHL
human platelets [3] = test: Platelet tyrosine phosphorylation (whole cell lysates, SDS-PAGE, anti-phosphotyrosine blot); conditions: 20 μM 12C-AHL
Description: FIGS. 3A-3C: Effect of AHLs on tyrosine phosphorylation. Human platelets were incubated with PBS or 12C-AHL then left unstimulated or stimulated with […] aggIgG or 0.1 Um′ thrombin. Whole cell lysates were prepared as described in the examples and blotted for anti-phosphotyrosine or anti-GAPDH as loading control. (FIG. 3A.) To determine band intensities, total band intensity in the phosphorylation gel was divided by the GAPDH signal and plotted as total band intensity. (FIG. 3B.) Intensity of the indicated band was compared to GAPDH and plotted as band intensity. (FIG. 3C.)
Results from the above experiments indicate that AHLs are altering platelet signaling downstream of FcγRIIa (the receptor for aggIgG) and thrombin receptors (PAR1/4) to a lesser extent. To test this, human platelets were incubated with PBS or 20 μM 12C-AHL for 15 min at 37° C. followed by stimulation with thrombin or aggIgG. Whole cell lysates were separated by SDS-PAGE and blotted for phosphotyrosine.

human platelets [4] = test: Platelet phagocytosis of IgG-coated beads through FcγRIIa (flow cytometry); conditions: FITC-IgG-coated 1.5 μm beads, 30 minutes
Description: FIGS. 4A-4C: Effect of AHLs on platelet-mediated phagocytosis. Human platelets were incubated as indicated in the examples and analyzed by flow cytometry for FITC-IgG and PE-anti-IgG. (FIG. 4A.) Platelets were incubated with PBS, 10C- or 12C-AHLs or cytochalasin D (positive control to block phagocytosis), then exposed to FITC-IgG-coated […] beads for 30 minutes, labeled with anti-IgG conjugated to PE and analyzed by flow cytometry for FITC-IgG and PE-anti-IgG. (FIG. 4B.) Platelets were treated as in FIG. 4B and surface CD62P expression was measured by flow cytometry. * p<0.01, ** p<0.005. (FIG. 4C.)
Polystyrene beads, 1.5 μm in diameter, (Polysciences, Warrington, Pa.) were opsonized for 2 hours at 21° C. in a 10 mg/ml solution FITC labeled human IgG (SigmaAldrich, St. Louis, Mo.) or unlabeled human IgG for controls. After washing three times in PBS, beads were then resuspended in buffer and counted via hemacytometer. […]
Samples were prepared for flow cytometry and platelets with associated beads were gated on CD42b+/FITC+ and analyzed for internal/external by the absence/presence of PE expression on a FACSCalibur (B-D Biosciences). […] Data were analyzed using Cell Quest (B-D Biosciences) and FlowJo (Tree Star, Inc., Ashland, Oreg.) software.
Because AHLs inhibit signaling (especially aggIgG-induced tyrosine phosphorylation), whether other platelet activities are inhibited was evaluated. […]

Row | Compound | maximal inhibitory concentration (MIC) for thrombin (human platelets [1]) [µM] | inhibition of platelet activation by thrombin (human platelets [1]) | inhibition of platelet activation by aggIgG (human platelets [2]) | effect on tyrosine phosphorylation in unstimulated platelets (human platelets [3]; 15 min at 37° C., unstimulated) | effect on tyrosine phosphorylation in platelets stimulated with thrombin (human platelets [3]; 0.1 U/ml thrombin) | effect on phosphorylation induced by aggIgG (human platelets [3]; aggIgG stimulation) | inhibition of the phagocytic activity of platelets (human platelets [4]) [%]
1 | CCCCCCCC(=O)CC(=O)N[C@H]1CCOC1=O [10C-AHL, N-(3-oxodecanoyl)-L-homoserine lactone] | 200 | inhibit platelet activation | inhibit platelet activation |  |  |  | 
2 | CCCCCCCCCC(=O)CC(=O)N[C@@H]1CCOC1=O [12C-AHL, N-oxo-dodecanoyl-L-homoserine lactone] | 200 | inhibit platelet activation | inhibit platelet activation | marginal effect | marginal effect | nearly completely abolished | 
3 | C=C1[C@@H](C)[C@H]2[C@H](Cc3ccccc3)NC(=O)[C@]23[C@H](OC(C)=O)/C=C/[C@@](C)(O)C(=O)[C@@H](C)C/C=C/[C@H]3[C@@H]1O [cytochalasin D] |  |  |  |  |  |  | > 90

Source: patent publication US10702497B2, “Use of acyl-homoserine lactone derivatives as anti-thrombotic agents” (The University of Toledo, priority 2015, dated 2020)
